Measured values from ChEMBL document CHEMBL6109109, “Fatty acid binding protein 5 inhibitors as novel anticancer agents against metastatic castration-resistant prostate cancer” (Bioorg Med Chem, 2025).

Experiments:
Format in all cases: functional
[1] = Synergistic anticancer activity against mouse RCaP cells assessed as cell growth inhibition at 5 uM measured after 72 hrs in presence of 0.1 uM of topotecan by MTT assay relative to control; conditions: read-out: GI
[2] = test system: PC-3; assay: Synergistic anticancer activity against human PC-3 cells assessed as cell growth inhibition at 5 uM measured after 72 hrs in presence of 1 uM of topotecan by MTT assay relative to control; conditions: read-out: GI
[3] = Synergistic anticancer activity against mouse RCaP cells assessed as cell growth inhibition at 5 uM measured after 72 hrs in presence of 1 uM of topotecan by MTT assay relative to control; conditions: read-out: GI
[4] = test system: PC-3; assay: Synergistic anticancer activity against human PC-3 cells assessed as cell growth inhibition at 20 uM measured after 72 hrs in presence of 0.01 uM of topotecan by MTT assay relative to control; conditions: read-out: GI
[5] = test system: PC-3; assay: Synergistic anticancer activity against human PC-3 cells assessed as cell growth inhibition at 10 uM measured after 72 hrs in presence of 1 uM of topotecan by MTT assay relative to control; conditions: read-out: GI
[6] = Cytotoxicity against mouse RCaP cells assessed as cell growth inhibition at 10 uM measured after 72 hrs by MTT assay relative to control; conditions: read-out: GI
[7] = Cytotoxicity against mouse RCaP cells assessed as cell growth inhibition at […] measured after 72 hrs by MTT assay relative to control; conditions: dose 2.5 µM, read-out: GI
[8] = Synergistic anticancer activity against mouse RCaP cells assessed as cell growth inhibition at […] measured after 72 hrs in presence of 1 uM of topotecan by MTT assay relative to control; conditions: dose 2.5 µM, read-out: GI
[9] = Synergistic anticancer activity against mouse RCaP cells assessed as cell growth inhibition at 20 uM measured after 72 hrs in presence of 0.01 uM of topotecan by MTT assay relative to control; conditions: read-out: GI
[10] = test system: PC-3; assay: Synergistic anticancer activity against human PC-3 cells assessed as cell growth inhibition at 5 uM measured after 72 hrs in presence of 0.00001 uM of topotecan by MTT assay relative to control; conditions: read-out: GI
[11] = test system: PC-3; assay: Synergistic anticancer activity against human PC-3 cells assessed as cell growth inhibition at 20 uM measured after 72 hrs in presence of 0.1 uM of topotecan by MTT assay relative to control; conditions: read-out: GI
[12] = test system: PC-3; assay: Synergistic anticancer activity against human PC-3 cells assessed as cell growth inhibition at 10 uM measured after 72 hrs in presence of 10 uM of topotecan by MTT assay relative to control; conditions: read-out: GI
[13] = Synergistic anticancer activity against mouse RCaP cells assessed as cell growth inhibition at 10 uM measured after 72 hrs in presence of 0.0001 uM of topotecan by MTT assay relative to control; conditions: read-out: GI
[14] = Cytotoxicity against mouse RCaP cells assessed as cell growth inhibition at 20 uM measured after 72 hrs by MTT assay relative to control; conditions: read-out: GI
[15] = test system: PC-3; assay: Cytotoxicity against human PC-3 cells assessed as cell growth inhibition at 10 uM measured after 72 hrs by MTT assay relative to control; conditions: read-out: GI
[16] = test system: PC-3; assay: Synergistic anticancer activity against human PC-3 cells assessed as cell growth inhibition at 20 uM measured after 72 hrs in presence of 0.0001 uM of topotecan by MTT assay relative to control; conditions: read-out: GI
[17] = Synergistic anticancer activity against mouse RCaP cells assessed as cell growth inhibition at […] measured after 72 hrs in presence of 10 uM of topotecan by MTT assay relative to control; conditions: dose 2.5 µM, read-out: GI
[18] = Synergistic anticancer activity against mouse RCaP cells assessed as cell growth inhibition at 20 uM measured after 72 hrs in presence of 0.001 uM of topotecan by MTT assay relative to control; conditions: read-out: GI
[19] = test system: PC-3; assay: Cytotoxicity against human PC-3 cells assessed as cell growth inhibition at 20 uM measured after 72 hrs by MTT assay relative to control; conditions: read-out: GI
[20] = test system: PC-3; assay: Synergistic anticancer activity against human PC-3 cells assessed as cell growth inhibition at 10 uM measured after 72 hrs in presence of 0.001 uM of topotecan by MTT assay relative to control; conditions: read-out: GI
[21] = Synergistic anticancer activity against mouse RCaP cells assessed as cell growth inhibition at […] measured after 72 hrs in presence of 0.0001 uM of topotecan by MTT assay relative to control; conditions: dose 2.5 µM, read-out: GI
[22] = Synergistic anticancer activity against mouse RCaP cells assessed as cell growth inhibition at 10 uM measured after 72 hrs in presence of 0.00001 uM of topotecan by MTT assay relative to control; conditions: read-out: GI
[23] = test system: PC-3; assay: Synergistic anticancer activity against human PC-3 cells assessed as cell growth inhibition at 20 uM measured after 72 hrs in presence of 1 uM of topotecan by MTT assay relative to control; conditions: read-out: GI
[24] = Synergistic anticancer activity against mouse RCaP cells assessed as cell growth inhibition at 20 uM measured after 72 hrs in presence of 0.1 uM of topotecan by MTT assay relative to control; conditions: read-out: GI
[25] = test system: PC-3; assay: Synergistic anticancer activity against human PC-3 cells assessed as cell growth inhibition at 10 uM measured after 72 hrs in presence of 0.01 uM of topotecan by MTT assay relative to control; conditions: read-out: GI
[26] = Synergistic anticancer activity against mouse RCaP cells assessed as cell growth inhibition at […] measured after 72 hrs in presence of 0.01 uM of topotecan by MTT assay relative to control; conditions: dose 2.5 µM, read-out: GI
[27] = Synergistic anticancer activity against mouse RCaP cells assessed as cell growth inhibition at 10 uM measured after 72 hrs in presence of 1 uM of topotecan by MTT assay relative to control; conditions: read-out: GI
[28] = test system: PC-3; assay: Synergistic anticancer activity against human PC-3 cells assessed as cell growth inhibition at 10 uM measured after 72 hrs in presence of 0.1 uM of topotecan by MTT assay relative to control; conditions: read-out: GI
[29] = test system: PC-3; assay: Synergistic anticancer activity against human PC-3 cells assessed as cell growth inhibition at 5 uM measured after 72 hrs in presence of 0.0001 uM of topotecan by MTT assay relative to control; conditions: read-out: GI
[30] = Synergistic anticancer activity against mouse RCaP cells assessed as cell growth inhibition at 10 uM measured after 72 hrs in presence of 0.01 uM of topotecan by MTT assay relative to control; conditions: read-out: GI
[31] = Synergistic anticancer activity against mouse RCaP cells assessed as cell growth inhibition at 5 uM measured after 72 hrs in presence of 10 uM of topotecan by MTT assay relative to control; conditions: read-out: GI
[32] = Synergistic anticancer activity against mouse RCaP cells assessed as cell growth inhibition at 10 uM measured after 72 hrs in presence of 0.001 uM of topotecan by MTT assay relative to control; conditions: read-out: GI
[33] = test system: PC-3; assay: Synergistic anticancer activity against human PC-3 cells assessed as cell growth inhibition at 20 uM measured after 72 hrs in presence of 0.001 uM of topotecan by MTT assay relative to control; conditions: read-out: GI
[34] = Cytotoxicity against mouse RCaP cells assessed as cell growth inhibition at 5 uM measured after 72 hrs by MTT assay relative to control; conditions: read-out: GI
[35] = Synergistic anticancer activity against mouse RCaP cells assessed as cell growth inhibition at 20 uM measured after 72 hrs in presence of 1 uM of topotecan by MTT assay relative to control; conditions: read-out: GI

SMILES | inhibition of growth at 5 µM [1] [%] | inhibition of growth at 5 µM [2] [%] | inhibition of growth at 5 µM [3] [%] | inhibition of growth at 20 µM [4] [%] | inhibition of growth at 10 µM [5] [%] | inhibition of growth at 10 µM [6] [%] | inhibition of growth at […] [7] [%] | inhibition of growth at […] [8] [%] | inhibition of growth at 20 µM [9] [%] | inhibition of growth at 5 µM [10] [%] | inhibition of growth at 20 µM [11] [%] | inhibition of growth at 10 µM [12] [%] | inhibition of growth at 10 µM [13] [%] | inhibition of growth at 20 µM [14] [%] | inhibition of growth at 10 µM [15] [%] | inhibition of growth at 20 µM [16] [%] | inhibition of growth at […] [17] [%] | inhibition of growth at 20 µM [18] [%] | inhibition of growth at 20 µM [19] [%] | inhibition of growth at 10 µM [20] [%] | further results
O=C(O)[C@H]1[C@H](c2ccccc2)[C@H](C(=O)Oc2cc(-c3ccc4c(c3)OCO4)ccc2-c2ccccc2)[C@H]1c1ccccc1 | 87.2 | 72.2 | 97.9 | 98.2 | 92 | 58.6 | 5.2 | 98.6 | 97.8 | 28.5 | 98.5 | 90.8 | 68 | 94.7 | 57.5 | 89 | 99.9 | 97.8 | 96.1 | 81.1 | inhibition of growth at […] [21]: 10.1%; inhibition of growth at 10 µM [22]: 68.4%; inhibition of growth at 20 µM [23]: 99.3%; inhibition of growth at 20 µM [24]: 98.9%; inhibition of growth at 10 µM [25]: 83%; inhibition of growth at […] [26]: 12.2%; inhibition of growth at 10 µM [27]: 96%; inhibition of growth at 10 µM [28]: 82.4%; inhibition of growth at 5 µM [29]: 30.9%; inhibition of growth at 10 µM [30]: 71.7%; inhibition of growth at 5 µM [31]: 99.6%; inhibition of growth at 10 µM [32]: 71.9%; inhibition of growth at 20 µM [33]: 98.4%; inhibition of growth at 5 µM [34]: 22.5%; inhibition of growth at 20 µM [35]: 98.8%
COc1ccccc1[C@H]1[C@H](C(=O)O)[C@H](c2ccccc2OC)[C@H]1C(=O)OCC1c2ccccc2-c2ccccc21 | 93.6 | 81 | 99 | 99.8 | 82.2 | 64.9 | 5.2 | 98.1 | 98.2 | 24.6 | 99.8 | 86.2 | 75.1 | 98.2 | 30.1 | 99.8 | 99.6 | 98.5 | 89.1 | 60.9 | inhibition of growth at […] [21]: -4.8%; inhibition of growth at 10 µM [22]: 76.5%; inhibition of growth at 20 µM [23]: 99.8%; inhibition of growth at 20 µM [24]: 99.9%; inhibition of growth at 10 µM [25]: 64.8%; inhibition of growth at […] [26]: 11.7%; inhibition of growth at 10 µM [27]: 98.3%; inhibition of growth at 10 µM [28]: 66.8%; inhibition of growth at 5 µM [29]: 27.5%; inhibition of growth at 10 µM [30]: 75.2%; inhibition of growth at 5 µM [31]: 99.4%; inhibition of growth at 10 µM [32]: 76.7%; inhibition of growth at 20 µM [33]: 99.8%; inhibition of growth at 5 µM [34]: 8.67%; inhibition of growth at 20 µM [35]: 99.1%
COc1ccccc1[C@H]1[C@H](C(=O)O)[C@H](c2ccccc2OC)[C@H]1C(=O)Oc1cc(-c2ccc3c(c2)OCO3)ccc1-c1ccccc1 | 91.9 | 89.8 | 97.9 | 98.7 | 88.7 | 78.2 | 2.8 | 98.2 | 100 | 44.3 | 99 | 92.2 | 89.4 | 99.7 | 66.4 | 99.5 | 98.9 | 100 | 99.2 | 72.4 | inhibition of growth at […] [21]: -3.7%; inhibition of growth at 10 µM [22]: 89.5%; inhibition of growth at 20 µM [23]: 99.1%; inhibition of growth at 20 µM [24]: 99.6%; inhibition of growth at 10 µM [25]: 77.4%; inhibition of growth at […] [26]: 20.6%; inhibition of growth at 10 µM [27]: 94.8%; inhibition of growth at 10 µM [28]: 81.4%; inhibition of growth at 5 µM [29]: 44.1%; inhibition of growth at 10 µM [30]: 87.8%; inhibition of growth at 5 µM [31]: 99.1%; inhibition of growth at 10 µM [32]: 88.4%; inhibition of growth at 20 µM [33]: 99.4%; inhibition of growth at 5 µM [34]: 40.6%; inhibition of growth at 20 µM [35]: 100%
